Patent US20260053811A1, “METHODS OF TREATING HYPERTENSION IN OBESE SUBJECTS” (Mineralys Therapeutics, Inc., priority 2022, published 2026)

Tested on: hypertensive subjects
Assay: Estimated glomerular filtration rate (eGFR, CKD-EPI equation)
Assay type: in vivo, human
Conditions: for Estimated Glomerular Filtration Rate, Mean Change from Baseline / Estimated Glomerular Filtration Rate, Mean Observed: Part 2; for Change in estimated glomerular filtration rate (eGFR): across dosing cohorts
Protocol: In contrast, mean eGFR for the Placebo group was relatively stable throughout treatment, reaching a mean maximal reduction of −2.80 mL/min/1.73 m^2 at Week 2 (range: −0.83 mL/min/1.73 m^2 to −2.80 mL/min/1.73 m^2). Estimated glomerular filtration rate was estimated using the CKD-EPI equation.

## CC(=O)N[C@H]1CC[C@H](NC(=O)CN2CCN(c3nncc(-c4ccc(C)cc4)n3)CC2)CC1 [Compound A HBr]
100 mg QD, Part 1, Week 2
  eGFR mean maximum decline relative to baseline: 10.91 mL/min/1.73 m^2
Part 1, Week 1, 12.5 mg BID
  Estimated Glomerular Filtration Rate, Mean (SD) Change from Baseline: −2.25 (8.42) mL/min/1.73 m^2
  Estimated Glomerular Filtration Rate, Mean (SD) Observed: 79.45 (15.19) mL/min/1.73 m^2
Part 1, Week 1, 12.5 mg QD
  Estimated Glomerular Filtration Rate, Mean (SD) Change from Baseline: −4.30 (7.14) mL/min/1.73 m^2
  Estimated Glomerular Filtration Rate, Mean (SD) Observed: 73.57 (20.33) mL/min/1.73 m^2
Part 1, Week 1, 25 mg BID
  Estimated Glomerular Filtration Rate, Mean (SD) Change from Baseline: −6.85 (8.88) mL/min/1.73 m^2
  Estimated Glomerular Filtration Rate, Mean (SD) Observed: 74.00 (13.13) mL/min/1.73 m^2
Part 1, Week 1, 50 mg QD
  Estimated Glomerular Filtration Rate, Mean (SD) Change from Baseline: −2.96 (8.52) mL/min/1.73 m^2
  Estimated Glomerular Filtration Rate, Mean (SD) Observed: 74.21 (16.88) mL/min/1.73 m^2
Part 1, Week 1, 100 mg QD
  Estimated Glomerular Filtration Rate, Mean (SD) Change from Baseline: −6.80 (10.03) mL/min/1.73 m^2
  Estimated Glomerular Filtration Rate, Mean (SD) Observed: 70.81 (17.66) mL/min/1.73 m^2
Part 1, Week 2, 12.5 mg BID
  Estimated Glomerular Filtration Rate, Mean (SD) Change from Baseline: −3.69 (6.46) mL/min/1.73 m^2
  Estimated Glomerular Filtration Rate, Mean (SD) Observed: 78.86 (18.56) mL/min/1.73 m^2
Part 1, Week 2, 12.5 mg QD
  Estimated Glomerular Filtration Rate, Mean (SD) Change from Baseline: −4.87 (5.03) mL/min/1.73 m^2
  Estimated Glomerular Filtration Rate, Mean (SD) Observed: 73.00 (20.81) mL/min/1.73 m^2
Part 1, Week 2, 25 mg BID
  Estimated Glomerular Filtration Rate, Mean (SD) Change from Baseline: −5.42 (10.01) mL/min/1.73 m^2
  Estimated Glomerular Filtration Rate, Mean (SD) Observed: 75.43 (15.32) mL/min/1.73 m^2
Part 1, Week 2, 50 mg QD
  Estimated Glomerular Filtration Rate, Mean (SD) Change from Baseline: −4.32 (9.06) mL/min/1.73 m^2
  Estimated Glomerular Filtration Rate, Mean (SD) Observed: 72.86 (16.55) mL/min/1.73 m^2
Part 1, Week 2, 100 mg QD
  Estimated Glomerular Filtration Rate, Mean (SD) Change from Baseline: −10.91 (8.57) mL/min/1.73 m^2
  Estimated Glomerular Filtration Rate, Mean (SD) Observed: 65.56 (17.66) mL/min/1.73 m^2
Part 1, Week 3, 12.5 mg BID
  Estimated Glomerular Filtration Rate, Mean (SD) Change from Baseline: −5.17 (8.54) mL/min/1.73 m^2
  Estimated Glomerular Filtration Rate, Mean (SD) Observed: 77.38 (16.68) mL/min/1.73 m^2
Part 1, Week 3, 12.5 mg QD
  Estimated Glomerular Filtration Rate, Mean (SD) Change from Baseline: −2.05 (6.43) mL/min/1.73 m^2
  Estimated Glomerular Filtration Rate, Mean (SD) Observed: 77.21 (20.38) mL/min/1.73 m^2
Part 1, Week 3, 25 mg BID
  Estimated Glomerular Filtration Rate, Mean (SD) Change from Baseline: −5.90 (8.63) mL/min/1.73 m^2
  Estimated Glomerular Filtration Rate, Mean (SD) Observed: 75.07 (11.95) mL/min/1.73 m^2
Part 1, Week 3, 50 mg QD
  Estimated Glomerular Filtration Rate, Mean (SD) Change from Baseline: −2.35 (8.51) mL/min/1.73 m^2
  Estimated Glomerular Filtration Rate, Mean (SD) Observed: 74.81 (15.62) mL/min/1.73 m^2
Part 1, Week 3, 100 mg QD
  Estimated Glomerular Filtration Rate, Mean (SD) Change from Baseline: −9.24 (10.99) mL/min/1.73 m^2
  Estimated Glomerular Filtration Rate, Mean (SD) Observed: 67.22 (19.24) mL/min/1.73 m^2
Part 1, Week 4, 12.5 mg BID
  Estimated Glomerular Filtration Rate, Mean (SD) Change from Baseline: −6.58 (9.17) mL/min/1.73 m^2
  Estimated Glomerular Filtration Rate, Mean (SD) Observed: 76.30 (18.28) mL/min/1.73 m^2
Part 1, Week 4, 12.5 mg QD
  Estimated Glomerular Filtration Rate, Mean (SD) Change from Baseline: −5.45 (6.37) mL/min/1.73 m^2
  Estimated Glomerular Filtration Rate, Mean (SD) Observed: 73.40 (19.29) mL/min/1.73 m^2
Part 1, Week 4, 25 mg BID
  Estimated Glomerular Filtration Rate, Mean (SD) Change from Baseline: −6.69 (8.97) mL/min/1.73 m^2
  Estimated Glomerular Filtration Rate, Mean (SD) Observed: 73.48 (15.26) mL/min/1.73 m^2
Part 1, Week 4, 50 mg QD
  Estimated Glomerular Filtration Rate, Mean (SD) Change from Baseline: −3.61 (9.24) mL/min/1.73 m^2
  Estimated Glomerular Filtration Rate, Mean (SD) Observed: 73.63 (16.75) mL/min/1.73 m^2
Part 1, Week 4, 100 mg QD
  Estimated Glomerular Filtration Rate, Mean (SD) Change from Baseline: −9.46 (12.53) mL/min/1.73 m^2
  Estimated Glomerular Filtration Rate, Mean (SD) Observed: 67.23 (19.70) mL/min/1.73 m^2
Part 1, Week 5, 12.5 mg BID
  Estimated Glomerular Filtration Rate, Mean (SD) Change from Baseline: −7.58 (8.00) mL/min/1.73 m^2
  Estimated Glomerular Filtration Rate, Mean (SD) Observed: 73.84 (20.78) mL/min/1.73 m^2
Part 1, Week 5, 12.5 mg QD
  Estimated Glomerular Filtration Rate, Mean (SD) Change from Baseline: −3.60 (5.70) mL/min/1.73 m^2
  Estimated Glomerular Filtration Rate, Mean (SD) Observed: 75.25 (19.58) mL/min/1.73 m^2
Part 1, Week 5, 25 mg BID
  Estimated Glomerular Filtration Rate, Mean (SD) Change from Baseline: −7.41 (9.65) mL/min/1.73 m^2
  Estimated Glomerular Filtration Rate, Mean (SD) Observed: 73.25 (14.75) mL/min/1.73 m^2
Part 1, Week 5, 50 mg QD
  Estimated Glomerular Filtration Rate, Mean (SD) Change from Baseline: −4.10 (9.61) mL/min/1.73 m^2
  Estimated Glomerular Filtration Rate, Mean (SD) Observed: 70.58 (13.23) mL/min/1.73 m^2
Part 1, Week 5, 100 mg QD
  Estimated Glomerular Filtration Rate, Mean (SD) Change from Baseline: −10.50 (10.94) mL/min/1.73 m^2
  Estimated Glomerular Filtration Rate, Mean (SD) Observed: 66.19 (19.58) mL/min/1.73 m^2
Part 1, Week 6, 12.5 mg BID
  Estimated Glomerular Filtration Rate, Mean (SD) Change from Baseline: −6.45 (8.05) mL/min/1.73 m^2
  Estimated Glomerular Filtration Rate, Mean (SD) Observed: 74.70 (16.86) mL/min/1.73 m^2
Part 1, Week 6, 12.5 mg QD
  Estimated Glomerular Filtration Rate, Mean (SD) Change from Baseline: −6.28 (6.77) mL/min/1.73 m^2
  Estimated Glomerular Filtration Rate, Mean (SD) Observed: 73.39 (20.48) mL/min/1.73 m^2
Part 1, Week 6, 25 mg BID
  Estimated Glomerular Filtration Rate, Mean (SD) Change from Baseline: −8.02 (9.17) mL/min/1.73 m^2
  Estimated Glomerular Filtration Rate, Mean (SD) Observed: 72.64 (15.33) mL/min/1.73 m^2
Part 1, Week 6, 50 mg QD
  Estimated Glomerular Filtration Rate, Mean (SD) Change from Baseline: −2.83 (8.61) mL/min/1.73 m^2
  Estimated Glomerular Filtration Rate, Mean (SD) Observed: 74.63 (16.59) mL/min/1.73 m^2
Part 1, Week 6, 100 mg QD
  Estimated Glomerular Filtration Rate, Mean (SD) Change from Baseline: −9.94 (12.91) mL/min/1.73 m^2
  Estimated Glomerular Filtration Rate, Mean (SD) Observed: 66.19 (21.44) mL/min/1.73 m^2
Part 1, Week 7, 12.5 mg BID
  Estimated Glomerular Filtration Rate, Mean (SD) Change from Baseline: −7.03 (8.98) mL/min/1.73 m^2
  Estimated Glomerular Filtration Rate, Mean (SD) Observed: 75.85 (21.29) mL/min/1.73 m^2
Part 1, Week 7, 12.5 mg QD
  Estimated Glomerular Filtration Rate, Mean (SD) Change from Baseline: −7.17 (8.80) mL/min/1.73 m^2
  Estimated Glomerular Filtration Rate, Mean (SD) Observed: 72.50 (22.45) mL/min/1.73 m^2
Part 1, Week 7, 25 mg BID
  Estimated Glomerular Filtration Rate, Mean (SD) Change from Baseline: −7.85 (9.47) mL/min/1.73 m^2
  Estimated Glomerular Filtration Rate, Mean (SD) Observed: 72.22 (13.89) mL/min/1.73 m^2
Part 1, Week 7, 50 mg QD
  Estimated Glomerular Filtration Rate, Mean (SD) Change from Baseline: −5.46 (10.42) mL/min/1.73 m^2
  Estimated Glomerular Filtration Rate, Mean (SD) Observed: 69.68 (12.23) mL/min/1.73 m^2
Part 1, Week 7, 100 mg QD
  Estimated Glomerular Filtration Rate, Mean (SD) Change from Baseline: −9.50 (12.17) mL/min/1.73 m^2
  Estimated Glomerular Filtration Rate, Mean (SD) Observed: 66.96 (21.02) mL/min/1.73 m^2
Part 1, Week 8, 12.5 mg BID
  Estimated Glomerular Filtration Rate, Mean (SD) Change from Baseline: −6.66 (7.92) mL/min/1.73 m^2
  Estimated Glomerular Filtration Rate, Mean (SD) Observed: 76.32 (19.63) mL/min/1.73 m^2
Part 1, Week 8, 12.5 mg QD
  Estimated Glomerular Filtration Rate, Mean (SD) Change from Baseline: −3.67 (8.10) mL/min/1.73 m^2
  Estimated Glomerular Filtration Rate, Mean (SD) Observed: 76.00 (21.00) mL/min/1.73 m^2
Part 1, Week 8, 25 mg BID
  Estimated Glomerular Filtration Rate, Mean (SD) Change from Baseline: −5.55 (9.22) mL/min/1.73 m^2
  Estimated Glomerular Filtration Rate, Mean (SD) Observed: 75.11 (14.81) mL/min/1.73 m^2
Part 1, Week 8, 50 mg QD
  Estimated Glomerular Filtration Rate, Mean (SD) Change from Baseline: −4.64 (9.87) mL/min/1.73 m^2
  Estimated Glomerular Filtration Rate, Mean (SD) Observed: 72.54 (16.89) mL/min/1.73 m^2
Part 1, Week 8, 100 mg QD
  Estimated Glomerular Filtration Rate, Mean (SD) Change from Baseline: −7.83 (11.62) mL/min/1.73 m^2
  Estimated Glomerular Filtration Rate, Mean (SD) Observed: 68.42 (20.14) mL/min/1.73 m^2
Week 1, 100 mg QD
  Estimated Glomerular Filtration Rate, Mean Change from Baseline: −9.65 mL/min/1.73 m^2
  Estimated Glomerular Filtration Rate, Mean Observed: 70.73 mL/min/1.73 m^2
Week 2, 100 mg QD
  Estimated Glomerular Filtration Rate, Mean Change from Baseline: −8.05 mL/min/1.73 m^2
  Estimated Glomerular Filtration Rate, Mean Observed: 72.07 mL/min/1.73 m^2
Week 3, 100 mg QD
  Estimated Glomerular Filtration Rate, Mean Change from Baseline: −7.33 mL/min/1.73 m^2
  Estimated Glomerular Filtration Rate, Mean Observed: 72.69 mL/min/1.73 m^2
Week 4, 100 mg QD
  Estimated Glomerular Filtration Rate, Mean Change from Baseline: −7.20 mL/min/1.73 m^2
  Estimated Glomerular Filtration Rate, Mean Observed: 72.92 mL/min/1.73 m^2
Week 5, 100 mg QD
  Estimated Glomerular Filtration Rate, Mean Change from Baseline: −8.69 mL/min/1.73 m^2
  Estimated Glomerular Filtration Rate, Mean Observed: 71.23 mL/min/1.73 m^2
Week 6, 100 mg QD
  Estimated Glomerular Filtration Rate, Mean Change from Baseline: −10.87 mL/min/1.73 m^2
  Estimated Glomerular Filtration Rate, Mean Observed: 68.04 mL/min/1.73 m^2
Week 7, 100 mg QD
  Estimated Glomerular Filtration Rate, Mean Change from Baseline: −7.34 mL/min/1.73 m^2
  Estimated Glomerular Filtration Rate, Mean Observed: 72.82 mL/min/1.73 m^2
Week 8, 100 mg QD
  Estimated Glomerular Filtration Rate, Mean Change from Baseline: −7.95 mL/min/1.73 m^2
  Estimated Glomerular Filtration Rate, Mean Observed: 72.43 mL/min/1.73 m^2
  Change in estimated glomerular filtration rate (eGFR): dose-dependent and reversible reduction in eGFR
Listed as lorundrostat
  Change in estimated glomerular filtration rate (eGFR): dose-dependent and reversible reduction in eGFR
